Experimental data published in patent US20230399319A1, “Acylsulfamide Compound and Pharmaceutical Use Therefor” (Japan Tobacco Inc., priority 2019, published 2023).
Like-named read-outs stand apart in the source and are kept apart here. Blank lines part the entries; values can stand above or below the compound they belong to.

Columns and labels:
[1] = test system: intra-articular urate-injected arthritis model; details: cited from earlier work
[2] = test system: Mice expressing CAPS-related NLRP3 mutations; details: strain expressing CAPS-related NLRP3 mutations; cited from earlier work
[3] = test system: MOG35-55EAE model mice; details: administration after the onset; cited from earlier work
[4] = target: NLRP3 inflammasome (Homo sapiens (Human), UniProt Q96P20); assay: Evaluation of NLRP3 inflammasome inhibitory activity (inhibition of IL-1β production in THP1-Null cells, LPS/Nigericin); details: for inhibition at 3 µM: read-out: % inhibition at 3 μM
NLRP3 inflammasome, sequence (Q96P20 whole entry): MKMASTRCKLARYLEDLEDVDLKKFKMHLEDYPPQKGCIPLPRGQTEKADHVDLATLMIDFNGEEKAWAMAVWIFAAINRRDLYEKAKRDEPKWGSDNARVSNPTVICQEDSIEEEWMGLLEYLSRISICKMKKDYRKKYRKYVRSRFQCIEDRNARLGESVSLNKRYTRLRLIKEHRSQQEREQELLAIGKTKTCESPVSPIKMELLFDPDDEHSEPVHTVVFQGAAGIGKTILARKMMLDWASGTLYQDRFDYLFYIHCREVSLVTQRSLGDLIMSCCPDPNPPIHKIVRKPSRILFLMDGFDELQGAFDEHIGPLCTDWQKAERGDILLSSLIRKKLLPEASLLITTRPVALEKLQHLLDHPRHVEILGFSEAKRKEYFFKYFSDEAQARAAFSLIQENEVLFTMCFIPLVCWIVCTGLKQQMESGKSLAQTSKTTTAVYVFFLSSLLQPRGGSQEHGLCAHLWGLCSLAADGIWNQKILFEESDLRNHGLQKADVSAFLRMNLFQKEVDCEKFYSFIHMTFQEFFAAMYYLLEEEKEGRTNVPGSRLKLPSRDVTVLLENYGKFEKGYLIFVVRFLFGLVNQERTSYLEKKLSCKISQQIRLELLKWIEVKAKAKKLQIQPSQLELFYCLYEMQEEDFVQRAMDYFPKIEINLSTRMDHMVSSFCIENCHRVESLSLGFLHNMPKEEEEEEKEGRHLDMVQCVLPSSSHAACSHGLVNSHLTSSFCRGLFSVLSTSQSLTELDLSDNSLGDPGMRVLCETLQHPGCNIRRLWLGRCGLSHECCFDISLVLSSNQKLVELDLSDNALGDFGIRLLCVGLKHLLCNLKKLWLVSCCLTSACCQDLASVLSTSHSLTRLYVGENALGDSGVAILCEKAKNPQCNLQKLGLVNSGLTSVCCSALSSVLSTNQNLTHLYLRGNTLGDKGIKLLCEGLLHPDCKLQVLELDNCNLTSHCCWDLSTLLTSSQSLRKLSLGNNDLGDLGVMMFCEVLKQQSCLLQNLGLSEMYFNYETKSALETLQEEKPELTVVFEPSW

[5] = inhibition of IL-1β production in THP1-Null cells
[6] = IL-1β production in THP1-Null cells, PMA/LPS primed, Nigericin 7.5 μmol/L

SMILES: CS(=O)(=O)CCC#N [OLT1177]
arthritis [1]: suppressed arthritis

SMILES: O=C(O)c1ccc(/C=C2/SC(=S)N(Cc3cccc(C(F)(F)F)c3)C2=O)cc1 [CY-09]
survival [2]: improved the survival
systemic lethal inflammation [2]: suppressed systemic lethal inflammation

SMILES: COc1ccc(Cl)cc1C(=O)NCCc1ccc(S(=O)(=O)NO)cc1 [JC-171, 5-Chloro-N-[2-(4-hydroxysulfamoyl-phenyl)-ethyl]-2-methoxy-benzamide]
impairment of motor function [3]: inhibited the impairment of motor function

SMILES: O=C(NS(=O)(=O)N1CCOCC1)c1coc(Nc2c3c(c(Cl)c4c2CCC4)CCC3)n1 [Example 37]
IC50 [4, 6]: < 30 nM

SMILES: CC(C)NS(=O)(=O)NC(=O)c1cnc(Nc2c3c(cc4c2CCC4)CCC3)o1 [Example 7]
IC50 [4, 6]: 200 nM

SMILES: CCS(=O)(=O)N1CCCN(S(=O)(=O)NC(=O)c2coc(Nc3cc(C(F)(F)F)ccc3C)n2)C(C)C1 (racemic) [Example 2-241]
IC50 [4]: 37 nM

SMILES: CC(C)c1nn(C(C)C)cc1Nc1nc(C(=O)NS(=O)(=O)N2CCCN(S(=O)(=O)CC(C)(C)C)CC2)co1 [Example 2-170]
IC50 [4, 5]: 600 nM

SMILES: Cc1ccc(C(F)(F)F)cc1Nc1nc(C(=O)NS(=O)(=O)NC(C)C)co1 [Example 2-046]
IC50 [4, 5]: 320 nM

SMILES: Cc1ccc(S(F)(F)(F)(F)F)cc1Nc1nc(C(=O)NS(=O)(=O)N(C)C)co1 [Example 2-034]
IC50 [4, 5]: 100 nM

SMILES: CCOCC1CCN(S(=O)(=O)NC(=O)c2coc(Nc3nn(C(C)C)cc3C(C)C)n2)CCO1 (stereo not drawn) [Example 2-344]
IC50 [4, 5]: 65 nM

SMILES: Cc1ccc(C(F)F)cc1Nc1nc(C(=O)NS(=O)(=O)N(C)C)co1 [Example 2-010]
IC50 [4, 5]: 120 nM

SMILES: CC(C)n1nc2c(c1Nc1nc(C(=O)NS(=O)(=O)N(C)C)co1)CCC2 [Example 2-014]
IC50 [4, 5]: 6000 nM

SMILES: CCCS(=O)(=O)N1CCN(S(=O)(=O)NC(=O)c2coc(Nc3cc(C(F)(F)F)ccc3C)n2)CC(F)C1 (racemic) [Example 2-222]
IC50 [4]: 30 nM

SMILES: O=C(NS(=O)(=O)N1CCOCC1)c1cnc(Nc2c3c(cc4c2CCC4)CCC3)o1 [Example 2]
IC50 [4, 6]: < 30 nM

SMILES: Cc1ccc(C(C)(C)C)cc1Nc1nc(C(=O)NS(=O)(=O)N(C)C)co1 [Example 2-069]
IC50 [4, 5]: 66 nM

SMILES: CCCCS(=O)(=O)N1CCN(S(=O)(=O)NC(=O)c2coc(Nc3cc(C(F)(F)F)ccc3C)n2)CC(F)C1 (racemic) [Example 2-197]
IC50 [4]: 17 nM

SMILES: O=C(NS(=O)(=O)N1CCCn2nccc21)c1coc(Nc2c3c(c(Cl)c4c2CCC4)CCC3)n1 [Example 46]
IC50 [4, 6]: 350 nM

SMILES: CC1(O)CCN(S(=O)(=O)NC(=O)c2coc(Nc3c4c(c(F)c5c3CCC5)CCC4)n2)C1 (racemic) [Example 33, 2-((8-fluoro-1,2,3,5,6,7-hexahydro-s-indacen-4-yl)amino)-N-((3-hydroxy-3-methylpyrrolidin-1-yl)sulfonyl)oxazole-4-carboxamide]
IC50 [4, 6]: 99 nM

SMILES: Cc1ccc(C(F)(F)F)cc1Nc1nc(C(=O)NS(=O)(=O)N2CCOCC2c2ccccc2)co1 (racemic) [Example 2-346]
IC50 [4]: 290 nM

SMILES: O=C(NS(=O)(=O)N1CCC(F)(F)C1)c1coc(Nc2c3c(c(Cl)c4c2CCC4)CCC3)n1 [Example 49]
IC50 [4, 6]: 270 nM

SMILES: CC1COCCN1S(=O)(=O)NC(=O)c1cnc(Nc2c3c(cc4c2CCC4)CCC3)o1 (racemic) [Example 5]
IC50 [4]: < 30 nM

The remaining lines, values ahead:

IC50 [4, 5]: < 30 nM
SMILES: Cc1ccc(C(C)C)cc1Nc1nc(C(=O)NS(=O)(=O)N2CCOCC2)cs1 [Example 2-055]

inhibition at 3 µM [4]: 44%
SMILES: CC(C)c1nn2c(c1Nc1nc(C(=O)NS(=O)(=O)N3CCCOCC3)co1)OCCC2C (stereo not drawn) [Example 2-248]

IC50 [4, 5]: 570 nM
SMILES: CC(C)c1nn(C(C)C)cc1Nc1nc(C(=O)NS(=O)(=O)N2CCCOCC2)co1 [Example 2-090]

IC50 [4]: 180 nM
SMILES: Cc1ccc(C(F)(F)F)cc1Nc1nc(C(=O)NS(=O)(=O)N2CCOCC2CO)co1 (racemic) [Example 2-045]

IC50 [4]: 89 nM
SMILES: Cc1ccc(C(F)(F)F)cc1Nc1nc(C(=O)NS(=O)(=O)N2CCCOC(C)C2)co1 (racemic) [Example 2-230]

inhibition at 3 µM [4]: 16%
SMILES: Cc1cn(CC(C)C)nc1Nc1nc(C(=O)NS(=O)(=O)N2CCCOCC2)co1 [Example 2-189]

IC50 [4, 5]: 280 nM
SMILES: Cc1ccc(C)c(Nc2nc(C(=O)NS(=O)(=O)N3CCCOCC3)co2)c1 [Example 2-073]

IC50 [4, 5]: < 30 nM
SMILES: Cc1ccc(C(F)(F)F)cc1Nc1nc(C(=O)NS(=O)(=O)N2CCCOCC2)cs1 [Example 2-066]

IC50 [4, 5]: 27 nM
SMILES: Cc1ccc(C(F)(F)F)cc1Nc1nc(C(=O)NS(=O)(=O)N2CCOC(CO)CC2)co1 (stereo not drawn) [Example 2-272]

IC50 [4, 6]: 150 nM
SMILES: Cc1ccc2c(c1Nc1nc(C(=O)NS(=O)(=O)N3CCOCC3)co1)CCC2 [Example 32]

IC50 [4, 5]: 120 nM
SMILES: Cc1ccc2c(c1Nc1nc(C(=O)NS(=O)(=O)N3CCCOCC3)cs1)CCC2 [Example 2-085]

IC50 [4, 5]: 1400 nM
SMILES: CC(C)n1cc(Nc2nc(C(=O)NS(=O)(=O)N3CCCOCC3)co2)c(C2CC2)n1 [Example 2-195]

IC50 [4]: 160 nM
SMILES: Cc1ccc(C2CC2)cc1Nc1nc(C(=O)NS(=O)(=O)N2CCC(O)C2)co1 (racemic) [Example 2-002]

IC50 [4, 5]: 10 nM
SMILES: CCCCS(=O)(=O)N1CCCN(S(=O)(=O)NC(=O)c2coc(Nc3cc(C(F)(F)F)ccc3C)n2)CC1 [Example 2-126]

IC50 [4]: 24 nM
SMILES: Cc1ccc(C(F)(F)F)cc1Nc1nc(C(=O)NS(=O)(=O)N2CCCC(n3cccn3)CC2)co1 (racemic) [Example 2-273]

IC50 [4, 5]: 15 nM
SMILES: CCCS(=O)(=O)N1CCCN(S(=O)(=O)NC(=O)c2coc(Nc3cc(CC)ccc3C)n2)CC1 [Example 2-256]

inhibition at 3 µM [4]: 33%
SMILES: Cc1cn(C(F)F)nc1Nc1nc(C(=O)NS(=O)(=O)N2CCCOCC2)co1 [Example 2-209]
